Test results: patent US20240208992A1, “MACROCYCLES AS CFTR MODULATORS” (Idorsia Pharmaceuticals Ltd, priority 2021, published 2024)

Target: human F508del-CFTR (Homo sapiens, UniProt P13569, DEL508-508)
Assay: F508del-CFTR cell surface expression (corrector activity), DiscoveRx ß-galactosidase complementation chemiluminescence assay in recombinant U2OS cell line;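 note: U2OS cells co-expressing ProLink-tagged F508del-CFTR and a membrane-anchored enzyme acceptor, where more surface CFTR restores β-galactosidase activity measured by chemiluminescence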
Conditions: for EC50: EC50, F508del-CFTR cell surface expression, geomean values; for Emax: U2OS, arithmetic mean values
[1] = U2OS cell line, 16h compound incubation
[2] = in relation to the Emax of the corrector lumacaftor (=100%), U2OS cell line, 16h compound incubation
[3] = U2OS cells, 16h compound incubation
[4] = in relation to Emax of corrector lumacaftor (=100%)

Chain of human F508del-CFTR (P13569 with tags, fused parts or gaps DEL508-508): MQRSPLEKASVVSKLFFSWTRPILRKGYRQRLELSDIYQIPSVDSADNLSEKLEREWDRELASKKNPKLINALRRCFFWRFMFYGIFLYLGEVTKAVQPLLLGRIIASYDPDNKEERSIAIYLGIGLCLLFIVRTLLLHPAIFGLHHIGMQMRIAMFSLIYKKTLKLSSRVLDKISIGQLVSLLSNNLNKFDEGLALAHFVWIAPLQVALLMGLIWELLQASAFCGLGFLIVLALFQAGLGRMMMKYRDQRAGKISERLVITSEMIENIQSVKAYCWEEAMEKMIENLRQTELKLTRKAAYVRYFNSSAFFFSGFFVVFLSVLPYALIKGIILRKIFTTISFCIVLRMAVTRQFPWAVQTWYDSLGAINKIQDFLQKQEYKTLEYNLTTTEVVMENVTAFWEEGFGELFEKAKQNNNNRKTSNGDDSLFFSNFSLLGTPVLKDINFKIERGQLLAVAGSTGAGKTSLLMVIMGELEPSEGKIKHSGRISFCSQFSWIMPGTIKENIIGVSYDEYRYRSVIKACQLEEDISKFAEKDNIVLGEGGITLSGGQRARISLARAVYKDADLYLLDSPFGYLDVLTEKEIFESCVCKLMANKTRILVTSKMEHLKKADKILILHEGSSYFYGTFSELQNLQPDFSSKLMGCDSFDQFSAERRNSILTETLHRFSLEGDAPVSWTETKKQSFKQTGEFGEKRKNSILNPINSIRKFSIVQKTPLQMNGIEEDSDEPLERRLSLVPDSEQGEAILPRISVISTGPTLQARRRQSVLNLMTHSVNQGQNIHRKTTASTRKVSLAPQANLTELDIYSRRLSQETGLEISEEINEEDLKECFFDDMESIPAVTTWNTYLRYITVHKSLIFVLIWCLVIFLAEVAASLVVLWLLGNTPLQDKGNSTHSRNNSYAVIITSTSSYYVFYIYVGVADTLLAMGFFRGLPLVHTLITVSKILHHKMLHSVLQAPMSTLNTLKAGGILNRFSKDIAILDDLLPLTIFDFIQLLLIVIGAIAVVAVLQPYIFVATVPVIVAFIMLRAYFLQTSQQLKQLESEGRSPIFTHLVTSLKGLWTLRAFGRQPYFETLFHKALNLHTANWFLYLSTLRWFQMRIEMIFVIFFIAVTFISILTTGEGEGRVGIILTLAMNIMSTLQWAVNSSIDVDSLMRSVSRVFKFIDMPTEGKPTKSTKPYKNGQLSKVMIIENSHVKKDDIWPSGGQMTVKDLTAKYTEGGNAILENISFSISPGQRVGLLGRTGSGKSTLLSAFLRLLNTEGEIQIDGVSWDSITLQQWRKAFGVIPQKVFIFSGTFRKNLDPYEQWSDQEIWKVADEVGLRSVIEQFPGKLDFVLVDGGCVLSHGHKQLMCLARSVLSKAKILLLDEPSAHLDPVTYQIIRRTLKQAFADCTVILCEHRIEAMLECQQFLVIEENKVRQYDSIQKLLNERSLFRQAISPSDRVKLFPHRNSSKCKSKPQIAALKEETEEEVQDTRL

Compound	EC50 [1] [µM]	Emax [2] [%]	EC50 [3] [µM]	Emax [4] [%]
CN1CC(=O)N[C@H](Cc2ccccc2)COc2cc3c(cc2C(=O)N[C@H](C(=O)NCCc2ccc4c(c2)OCO4)CC(=O)N(C)[C@@H](CC2CCC2)C1=O)OCO3 [Example 7, (7R,13S,17S)-N-(2-(benzo[d][1,3]dioxol-5-yl)ethyl)-7-benzyl-13-(cyclobutylmethyl)-11,14-dimethyl-9,12,15,19-tetraoxo-6,7,8,9,10,11,12,13,14,15,16,17,18,19-tetradecahydro-[1,3]dioxolo[4′,5′:4,5]benzo[1,2-p][1]oxa[4,7,10,14]tetraazacycloheptadecine-17-carboxamide]	0.398	118	–	–
CC(C)C[C@H]1C(=O)N2CCCC[C@@H]2C(=O)N[C@H](Cc2ccccc2)COc2cnc3ccccc3c2C(=O)N[C@H](C(=O)NCCc2nnc(-c3ccccc3OC(F)(F)F)[nH]2)CC(=O)N1C [Example 88, (9S,13S,19aR,22R)-22-benzyl-13-isobutyl-12-methyl-7,11,14,20-tetraoxo-N-(2-(5-(2-(trifluoromethoxy)phenyl)-4H-1,2,4-triazol-3-yl)ethyl)-7,8,9,10,11,12,13,14,17,18,19,19a,20,21,22,23-hexadecahydro-16H-pyrido[2′,1′:6,7][1]oxa[4,7,10,14]tetraazacycloheptadecino[17,16-c]quinoline-9-carboxamide]	0.23	112	–	–
CO[C@H]1C[C@]2(C1)C(=O)N[C@H](Cc1ccccc1)COc1cnc3ccccc3c1C(=O)N[C@H](C(=O)NCCc1ccc(-n3nccn3)cc1)CC(=O)N(C)[C@@H](CC(C)C)C(=O)N2C [Example 493, (1r,3S,3′S,7′S,13′R)-N-(4-(2H-1,2,3-triazol-2-yl)phenethyl)-13′-benzyl-7′-isobutyl-3-methoxy-6′,9′-dimethyl-1′,5′,8′,11′-tetraoxo-2′,3′,4′,5′,6′,7′,8′,9′,11′,12′,13′,14′-dodecahydro-1′H-spiro[cyclobutane-1,10′-[1]oxa[4,7,10,14]tetraazacycloheptadecino[17,16-c]quinoline]-3′-carboxamide]	–	–	0.687	253
COc1cccc(CCNC(=O)[C@@H]2CC(=O)N(C)[C@@H](CC(C)C)C(=O)N3CCN(C4CC4)C[C@@H]3C(=O)N[C@H](Cc3ccccc3)COc3ccc4nc(C)oc4c3C(=O)N2)c1 [Example 417, (8S,12S,18aR,21R)-21-benzyl-17-cyclopropyl-12-isobutyl-N-(3-methoxyphenethyl)-4,11-dimethyl-6,10,13,19-tetraoxo-6,7,8,9,10,11,12,13,16,17,18,18a,19,20,21,22-hexadecahydro-15H-oxazolo[4′,5′:5,6]benzo[1,2-p]pyrazino[2,1-f][1]oxa[4,7,10,14]tetraazacycloheptadecine-8-carboxamide]	–	–	0.437	343
COc1cccc(CCNC(=O)[C@@H]2CC(=O)N(C)[C@@H](CC(C)C)C(=O)N3CCN(c4ccccc4)C[C@H]3C(=O)N[C@H](Cc3ccccc3)COc3ccnc(OC)c3C(=O)N2)c1 [Example 549, (7S,11S,20R,22aS)-20-benzyl-7-isobutyl-14-methoxy-N-(3-methoxyphenethyl)-8-methyl-6,9,13,22-tetraoxo-2-phenyl-1,3,4,6,7,8,9,10,11,12,13,19,20,21,22,22a-hexadecahydro-2H-pyrazino[2,1-f]pyrido[3,4-p][1]oxa[4,7,10,14]tetraazacycloheptadecine-11-carboxamide]	–	–	0.166	167
COc1cccc2c1C(=O)N[C@H](C(=O)NCCc1ccc(C)cc1)CC(=O)N(C)[C@@H](CC(C)C)C(=O)N(CCC1CCCCC1)CC(=O)N[C@H](Cc1ccccc1)CO2 [Example 202, (3R,9S,13S)-3-benzyl-7-(2-cyclohexylethyl)-9-isobutyl-16-methoxy-10-methyl-N-(4-methylphenethyl)-5,8,11,15-tetraoxo-2,3,4,5,6,7,8,9,10,11,12,13,14,15-tetradecahydrobenzo[p][1]oxa[4,7,10,14]tetraazacycloheptadecine-13-carboxamide]	0.187	160	–	–
